Assay results as given in patent publication EP4810579A1, “AQUEOUS COATING COMPOSITION” (Chugoku Marine Paints, Ltd., priority 2023, dated 2025).

Test: Aqueous solubility of organic solvent, EPA830.7840 flask shaking method
Format: physicochemical
Conditions: 1 atm and 23°C
Excerpt: The upper limit of the aqueous solubility of the organic solvent (B) is not particularly limited. The organic solvent (B) may be, for example, a water-miscible organic solvent that can be mixed with water in an arbitrary amount. […] The aqueous solubility of the organic solvent (B) represents the maximum amount (g) of the organic solvent dissolved in 100 g of water.

SMILES | Aqueous solubility | amount of the organic solvent dissolved in 100 g of water
COCC(C)O (stereo not drawn) [Propylene glycol monomethyl ether] | miscible | 
CCCOC(C)COC(C)CO (stereo not drawn) [Dipropylene glycol monopropyl ether] | 18 g/100 g of water | 18 g
CCCCOC(C)COC(C)COC(C)CO (stereo not drawn) [Tripropylene glycol monobutyl ether] | 3 g/100 g of water | 3 g
OCc1ccccc1 [Benzyl alcohol] | 4 g/100 g of water | 4 g
COC(C)COC(C)COC(C)CO (stereo not drawn) [tripropylene glycol monomethyl ether] |  | miscible
OCCOc1ccccc1 [ethylene glycol monophenyl ether] |  | 2.3 g
COC(C)COC(C)CO (stereo not drawn) [Dipropylene glycol monomethyl ether] | miscible | 
CCCCOCCOCCO [Diethylene glycol monobutyl ether] | miscible | miscible
